Data taken from patent US10427133B2, “Absorbent article comprising cyclodextrin complexes” (The Procter & Gamble Company, priority 2016, dated 2019).

Test: Thiol Vapor Pressure Suppression (TVPS) index measurement, zNose fast GC headspace
Conditions: 5 μl compound, 100 μl 1% v/v butanethiol in ethanol, 37° C. for 4 hours
From the text: (§1) Thiol Vapor Pressure Suppression (TVPS) index is a measure of the reduction in butanethiol concentration in the headspace by a compound, as measured using a fast GC instrument, the zNose 7100 (Electronic Sensor Technologies, Newbury Park, Calif.).
as §1, with “Calif.) based on an Surface Acoustic Wave (SAW) Quartz microbalance detector, or equivalent.” for “Calif.).”
Before any measurements the instrument is calibrated according to manufacturer's instructions under the same experimental settings. The instrument has a DB-5 column (also available from Electronic Sensor Technologies, Newbury Park, Calif.) 1 m in length, 0.25 μm phase thickness, and 0.25 mm in diameter.
For analysis, the zNose is programmed with the Sensor Temperature, Inlet Temperature, Valve Temperature, and Initial Column Temperature all set to 40° C. The oven is temperature gradient is programmed at a rate of 10° C./s from 40° C. to a final temperature of 200° C.
TVPS of a compound is measured in the following way: 100 μl±1 μl of a 1% v/v butanethiol (99%, purity, available from Sigma-Aldrich, St. Louis, Mo.) solution in ethanol (200 proof) is added into a 1 ml vial (8×40 mm). These vials are borosilcate glass straight walled vial. In another 1 ml vial (8×40 mm), 5 μl±0.2 μl of the compound is added. Both open vials are then placed inside a 20 mL headspace vial (22×75 mm), and the vial is immediately sealed using a screw thread closure with PTFE/Silicone septa. The vial is heated to 37° C. for 4 hours. After 4 hours, the vial is removed from the oven and let to equilibrate at 25° C.±2° C. for 15 minutes. The headspace inside the vial is sampled using the zNose is sampled for 10 s and analyzed following the experimental protocol outlined above. Samples with butanethiol alone, and the volatile active alone, are run using the same protocol to identify the peaks for both materials. An acceptable retention index for butanethiol is 720±30. If the peaks butanethiol peak and the volatile material peak co-elute, one skilled in the art can modify the protocol settings to separate those peaks to achieve a minimum resolution of 1.5. For example one can change the column temperature ramp rate. In between samples, the instrument needs to be cleaned to remove any trace materials. To clean the instrument, the instrument is run without samples as needed until no peaks greater than 100 counts are observed.
The amount of butanethiol in the headspace is measured from the area of the peak on the chromatograph for butanethiol (ABtSH,Rx). To calculate the percentage of butanethiol reduction in the headspace, a control with the butanethiol solution without the volatile material is run in the same manner and the area is measured as well (ABtSH,C). TVPS is then measured as the percentage reduction in butanethiol area calculated using the following formula: […]

Point of comparison: `CC1=CC(C)C(C=O)CC1` (centres unmarked) [ligustral], “TVPS (percentage reduction in butanethiol headspace peak area)” value 42.5. Against it:
- CC(C)c1cccc(C(C)CC=O)c1 (centres unmarked) [Florhydral] — higher, 53.3
- CC(C)=CCC/C(C)=C\C=O [neral] — lower, 17.1
- Cc1ccc(C=O)s1 [5-methyl-2-thiophene-carboxaldehyde] — higher, 67.4
- CCC/C=C/C=O [trans-2-hexenal] — lower, 27.1
- CC(C)=CCCC(C)CCCC(C)C=O (centres unmarked) [adoxal] — lower, 24.4
- CC(C)=CCCC(C)C=O (centres unmarked) [melonal] — lower, 20.4
- C=CC(C)CCC=C(C)CCC=O (centres unmarked) [Floral Super] — higher, 52.4
- CCCCCCC(C=O)=Cc1ccccc1 [Hexylcinnamic aldehyde] — lower, 8.0

Test: Fragrance (OCOC) release from cyclodextrin complexes on feminine hygiene pad, SPME-GC/MS headspace
Format: physicochemical
Conditions: 1.00 mL water, headspace at 5, 10, 30 min, FIG. 2
From the text: The results are shown in the graph of FIG. 2. After dosing with water the headspace was sampled using Solid Phase Micro-Extraction (a suitable fiber assembly is a 2 cm Stableflex 24 Ga, 50/30 μm DVB/CAR/PDMS available from Supelco, Pa. or equivalent) followed by gas chromatography/mass spectrometry (a suitable unit is the 5777A Mass Selective Detector (MSD) also available from Agilent, or equivalent) with a GERSTEL Multipurpose Sampler (Gerstel, Liticumo, Md. or equivalent) to quantify the OCOC release.
The model OCOC used is a neat mixture of benzaldehyde (1.6 g, 15.08 mmols), ligustral (1.6 g, 11.58 mmols), citral (1.6 g, 10.51 mmols), cinnamic aldehyde (1.6 g, 12.11 mmols), and florhydral (1.6 g, 8.41 mmols). All components are available from Sigma Aldrich, or equivalent. The mixture is homogenized before use.
The Standard Pad Substrates are prepared by cutting a 10 cm lateral strip across the whole product centered at the longitudinal center of an Always Ultra normal size pad.
A mixture of the model OCOC for each β-cyclodextrin type was solubilized in water at a one-to-one molar ratio (β-cyclodextrin/OCOC). The amount of water used for the complexation was adjusted for each β-cyclodextrin type according to its individual water solubility to ensure complete dissolution of the β-cyclodextrin complex. Each mixture of β-cyclodextrin and OCOC in water was thoroughly homogenized. […]

For `COC[C@H]1O[C@@H]2O[C@H]3[C@H](O)[C@@H](OC)[C@@H](O[C@H]4[C@H](O)[C@@H](OC)[C@@H](O[C@H]5[C@H](O)[C@@H](OC)[C@@H](O[C@H]6[C@H](O)[C@@H](OC)[C@@H](O[C@H]7[C@H](O)[C@@H](OC)[C@@H](O[C@H]8[C@H](O)[C@@H](OC)[C@@H](O[C@H]1[C@H](O)[C@H]2OC)O[C@@H]8COC)O[C@@H]7COC)O[C@@H]6COC)O[C@@H]5COC)O[C@@H]4COC)O[C@@H]3COC` [2,6-dimethyl-β-cyclodextrin, 2,6-Di-O-methyl-β-cyclodextrin], the “Percent release of fragrance versus conventional β-cyclodextrin complex” value was “much higher percent release of fragrance than does conventional β-cyclodextrin”.

With `COC[C@H]1O[C@@H]2O[C@H]3[C@H](O)[C@@H](OC)[C@@H](O[C@H]4[C@H](O)[C@@H](OC)[C@@H](O[C@H]5[C@H](O)[C@@H](OC)[C@@H](O[C@H]6[C@H](O)[C@@H](OC)[C@@H](O[C@H]7[C@H](O)[C@@H](OC)[C@@H](O[C@H]8[C@H](O)[C@@H](OC)[C@@H](O[C@H]1[C@H](O)[C@H]2OC)O[C@@H]8COC)O[C@@H]7COC)O[C@@H]6COC)O[C@@H]5COC)O[C@@H]4COC)O[C@@H]3COC` [2,6-dimethyl-β-cyclodextrin, 2,6-Di-O-methyl-β-cyclodextrin] the “Release of fragrance versus 2,3,6-trimethyl-β-cyclodextrin complex” value was “much higher release of fragrance than does 2, 3, 6-trimethyl-β-cyclodextrin”.
